According to patent US10016469B2, “Composition comprising antifungal agents for treating vulvovaginitis and vaginosis” (Two Lines Co., Ltd., priority 2015, dated 2018):

What was measured:
[1] = system: G. vaginalis, standard microorganism (ATCC 14018); assay: Antibiotic disk diffusion assay; assay type: cell-based, Gardnerella vaginalis; conditions: G. vaginalis ATCC 14018, Columbia agar with 5% human red blood cell solution
Description: To screen antibiotics to which Gardnerella vaginalis (G. vaginalis) is sensitive, and are resistant to probiotics, antibiotics were tested using a disk diffusion assay.
(§1) Columbia agar containing a 5% human red blood cell solution was used as a media for Gardnerella vaginalis (G. vaginalis, ATCC 14018) and a MRS agar was used as a media for the strains of the present invention (S. denitnficans YH1 and L. crispatus YH2). As the antibiotic disk, a product manufactured by OXIOD was used.
(§2) As described above, augmentin, metronidazole, and clindamycin were applied to a wild-type Gardnerella vaginalis (G. vaginalis) strain obtained from 33 patients suffering from bacterial vaginosis and a standard microorganism (ATCC 14018) and subjected to a test using a disk diffusion assay.

[2] = system: wild-type Gardnerella vaginalis (G. vaginalis) strain obtained from 33 patients suffering from bacterial vaginosis; assay: Antibiotic disk diffusion assay on clinical isolates; assay type: cell-based
From the text: as §1, §2

Substance: Augmentin
- diameter of inhibition zone [1]: 60 mm
- Diameter of inhibition zone per antibiotic ([2]; G. vaginalis strain 14-1, biotype 1): 60 mm
- Diameter of inhibition zone per antibiotic ([2]; G. vaginalis strain 14-2, biotype 5): 33 mm
- Diameter of inhibition zone per antibiotic ([2]; G. vaginalis strain 14-3, biotype 4): 40 mm
- Diameter of inhibition zone per antibiotic ([2]; G. vaginalis strain 14-4, biotype 6): 45 mm
- Diameter of inhibition zone per antibiotic ([2]; G. vaginalis strain 14-5, biotype 4): 40 mm
- Diameter of inhibition zone per antibiotic ([2]; G. vaginalis strain 14-6, biotype 1): 60 mm
- Diameter of inhibition zone per antibiotic ([2]; G. vaginalis strain 14-7, biotype 5): 40 mm
- Diameter of inhibition zone per antibiotic ([2]; G. vaginalis strain 14-8, biotype 3): 50 mm
- Diameter of inhibition zone per antibiotic ([2]; G. vaginalis strain 14-9, biotype 2): 35 mm
- Diameter of inhibition zone per antibiotic ([2]; G. vaginalis strain 14-10, biotype 3): 35 mm
- Diameter of inhibition zone per antibiotic ([2]; G. vaginalis strain 14-11, biotype 2): 60 mm
- Diameter of inhibition zone per antibiotic ([2]; G. vaginalis strain 14-12, biotype 5): 35 mm
- Diameter of inhibition zone per antibiotic ([2]; G. vaginalis strain 14-13, biotype 5): 30 mm
- Diameter of inhibition zone per antibiotic ([2]; G. vaginalis strain 14-14, biotype 4): 40 mm
- Diameter of inhibition zone per antibiotic ([2]; G. vaginalis strain 14-15, biotype 5): 45 mm
- Diameter of inhibition zone per antibiotic ([2]; G. vaginalis strain 14-16, biotype 8): 45 mm
- Diameter of inhibition zone per antibiotic ([2]; G. vaginalis strain 14-17, biotype 5): 35 mm
- Diameter of inhibition zone per antibiotic ([2]; G. vaginalis strain 14-19, biotype 5): 40 mm
- Diameter of inhibition zone per antibiotic ([2]; G. vaginalis strain 14-20, biotype 7): 60 mm
- Diameter of inhibition zone per antibiotic ([2]; G. vaginalis strain 14-21, biotype 8): 50 mm
- Diameter of inhibition zone per antibiotic ([2]; G. vaginalis strain 14-23, biotype 8): 35 mm
- Diameter of inhibition zone per antibiotic ([2]; G. vaginalis strain 14-24, biotype 8): 50 mm
- Diameter of inhibition zone per antibiotic ([2]; G. vaginalis strain 14-25, biotype 5): 60 mm
- Diameter of inhibition zone per antibiotic ([2]; G. vaginalis strain 14-26, biotype 5): 50 mm
- Diameter of inhibition zone per antibiotic ([2]; G. vaginalis strain 14-27, biotype 4): 50 mm
- Diameter of inhibition zone per antibiotic ([2]; G. vaginalis strain 14-28, biotype 5): 30 mm
- Diameter of inhibition zone per antibiotic ([2]; G. vaginalis strain 14-29, biotype 5): 40 mm
- Diameter of inhibition zone per antibiotic ([2]; G. vaginalis strain 14-30, biotype 5): 55 mm
- Diameter of inhibition zone per antibiotic ([2]; G. vaginalis strain 14-32, biotype 5): 50 mm
- Diameter of inhibition zone per antibiotic ([2]; G. vaginalis strain 14-33, biotype 7): 45 mm
- Diameter of inhibition zone per antibiotic ([2]; G. vaginalis strain 14-34, biotype 5): 40 mm
- Diameter of inhibition zone per antibiotic ([2]; G. vaginalis strain 14-36, biotype 5): 40 mm
- Diameter of inhibition zone per antibiotic ([2]; G. vaginalis strain 14-37, biotype 1): 60 mm
- Diameter of inhibition zone per antibiotic, Average ± SD ([2]; average over the G. vaginalis strains of Table 11): 44.9±9.5 mm
- resistance of the G. vaginalis strains, in words ([2]; strains of Table 11): no strain was resistant
